Columns and labels:
bNOS = bNOS (Homo sapiens, UniProt P29475); assay: bNOS inhibition (method of Bredt and Snyder); assay type: biochemical; conditions: Proc. Natl. Acad. Sci. USA (1989) 86, 9030-9033
Source text: The NOS-inhibitory action of the compounds of Formula (I) and their physiologically compatible salts can be determined according to the methods by Bredt and Snyder in Proc. Natl. Acad. Sci. USA (1989) 86, 9030-9033.

| IC50 (bNOS) | melting point | Compound |
| --- | --- | --- |
| 590 nM |  | NC1=Nc2c(F)cccc2C2CCCC12F (centres unmarked) [Example 2, 4-amino-3a,6-difluoro-2,3,3a,9b-tetrahydro-1H-cyclopenta[c]quinoline] |
|  | 220 °C | NC1=Nc2ccc(Br)cc2C2CCCC12F (centres unmarked) [Example 3, 4-Amino-8-bromo-3a-fluoro-2,3,3a,9b-tetrahydro-1H-cyclopenta[c]quinoline] |

Reference: patent publication US6579883B1, “Fluorinated 3,4-dihydroquinoline derivatives used as NOS inhibitors” (Schering Aktiengesellschaft, priority 1998, dated 2003)
